A word on the CC50: it is the concentration that lowers cell viability or growth by half. Usually IC50 stands for the concentration that gives 50% inhibition.

We go through 16 molecules from ChEMBL document CHEMBL4265889, “Design and synthesis of tetrahydropyridopyrimidine based Toll-Like Receptor (TLR) 7/8 dual agonists” (Bioorg Med Chem Lett, 2018).

Data set [1] deals with T1, Toll-like receptor 7 (Homo sapiens) (UniProt Q9NYK1).
T1 sequence (whole entry): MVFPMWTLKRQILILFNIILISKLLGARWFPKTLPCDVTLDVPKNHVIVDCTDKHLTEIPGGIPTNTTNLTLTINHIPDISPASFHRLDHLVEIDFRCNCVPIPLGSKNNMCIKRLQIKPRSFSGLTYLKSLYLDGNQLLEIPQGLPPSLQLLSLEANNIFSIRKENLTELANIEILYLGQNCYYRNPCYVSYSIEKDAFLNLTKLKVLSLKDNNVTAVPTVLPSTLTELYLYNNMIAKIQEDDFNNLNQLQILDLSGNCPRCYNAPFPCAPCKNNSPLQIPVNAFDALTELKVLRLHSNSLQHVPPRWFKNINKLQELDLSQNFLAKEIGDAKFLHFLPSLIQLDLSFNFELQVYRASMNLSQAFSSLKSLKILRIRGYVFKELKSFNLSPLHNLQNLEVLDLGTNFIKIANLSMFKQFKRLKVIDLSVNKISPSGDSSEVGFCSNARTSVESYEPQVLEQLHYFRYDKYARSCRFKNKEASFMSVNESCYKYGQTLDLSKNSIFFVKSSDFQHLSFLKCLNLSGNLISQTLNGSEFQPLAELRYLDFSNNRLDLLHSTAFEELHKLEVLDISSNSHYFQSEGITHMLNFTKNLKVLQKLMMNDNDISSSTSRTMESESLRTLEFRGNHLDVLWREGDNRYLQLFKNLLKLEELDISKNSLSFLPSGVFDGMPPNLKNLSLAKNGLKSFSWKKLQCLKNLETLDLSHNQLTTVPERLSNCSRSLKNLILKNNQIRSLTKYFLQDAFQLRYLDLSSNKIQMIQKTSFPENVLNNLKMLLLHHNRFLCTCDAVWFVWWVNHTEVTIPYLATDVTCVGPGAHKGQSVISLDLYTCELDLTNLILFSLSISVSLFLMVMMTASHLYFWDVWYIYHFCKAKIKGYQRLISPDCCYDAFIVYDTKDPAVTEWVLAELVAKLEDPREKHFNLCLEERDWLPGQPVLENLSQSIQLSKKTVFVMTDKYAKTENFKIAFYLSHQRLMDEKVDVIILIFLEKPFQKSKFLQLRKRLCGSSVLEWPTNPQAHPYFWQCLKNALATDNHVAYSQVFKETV
Nature of the data set: Agonist activity at human TLR7 expressed in HEK293 cells after 6 hrs by NFkappaB-luciferase reporter gene assay. The class given is cell-based.

The target of data set [2] is T2, Toll-like receptor 8 (Homo sapiens) (UniProt Q9NR97).
T2 sequence (whole entry): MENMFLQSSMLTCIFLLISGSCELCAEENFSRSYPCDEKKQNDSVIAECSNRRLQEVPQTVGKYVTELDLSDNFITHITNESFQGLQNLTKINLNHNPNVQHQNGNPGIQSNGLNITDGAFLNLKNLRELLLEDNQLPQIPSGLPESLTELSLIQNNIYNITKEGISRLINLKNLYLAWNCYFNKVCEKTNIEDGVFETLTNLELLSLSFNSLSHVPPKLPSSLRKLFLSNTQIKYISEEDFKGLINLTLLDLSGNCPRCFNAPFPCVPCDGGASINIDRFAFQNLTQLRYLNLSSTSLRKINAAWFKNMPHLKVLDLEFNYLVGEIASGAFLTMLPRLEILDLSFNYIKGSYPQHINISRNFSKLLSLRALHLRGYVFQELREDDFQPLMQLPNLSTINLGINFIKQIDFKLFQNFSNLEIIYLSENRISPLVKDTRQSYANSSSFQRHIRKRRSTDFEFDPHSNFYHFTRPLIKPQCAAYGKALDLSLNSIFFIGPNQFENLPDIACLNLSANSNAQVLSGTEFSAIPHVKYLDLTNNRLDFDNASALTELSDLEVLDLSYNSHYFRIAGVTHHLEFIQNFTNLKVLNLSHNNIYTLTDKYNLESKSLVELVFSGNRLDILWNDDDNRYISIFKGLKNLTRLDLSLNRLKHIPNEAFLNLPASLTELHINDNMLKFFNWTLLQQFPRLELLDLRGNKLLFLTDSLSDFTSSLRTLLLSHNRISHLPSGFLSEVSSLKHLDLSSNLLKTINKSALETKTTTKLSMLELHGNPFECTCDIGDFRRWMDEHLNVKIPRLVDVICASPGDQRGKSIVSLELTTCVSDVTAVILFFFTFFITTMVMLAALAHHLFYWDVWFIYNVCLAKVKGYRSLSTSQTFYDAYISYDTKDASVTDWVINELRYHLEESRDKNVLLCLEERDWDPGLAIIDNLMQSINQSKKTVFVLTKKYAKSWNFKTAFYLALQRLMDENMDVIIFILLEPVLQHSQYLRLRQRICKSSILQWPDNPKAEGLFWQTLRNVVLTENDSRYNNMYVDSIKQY
Description: Agonist activity at human TLR8 expressed in HEK293 cells after 6 hrs by NFkappaB-luciferase reporter gene assay. Type of data set: cell-based. (In general: Reporter assays use an easily measured gene product as a stand-in for the process of interest.)

Data set [3] in a line: Cytotoxicity against HEK293 cells transfected with the CMV-TLR7 construct assessed as reduction in cell viability after 6 hrs by ATPlite assay. Type of data set: cell-based. Conditions: human.
The target of data set [4] is T1, Toll-like receptor 7 (Homo sapiens). Nature of the data set: Agonist activity at TLR7 in human PBMC assessed as suppression of HCV replicon replication in human HuH7 luc/neo cells harboring RNA encoding bicistronic expression construct comprising wild type HCV type 1b NS3-NS5B regions exposed to conditioned media from compound treated PBMCs after 24 hrs by luciferase reporter gene assay. Type of data set: cell-based. In general terms: A replicon is a self-replicating genome or part of one, used to study replication in cells.

A short description of data set [5]: Drug metabolism in mouse liver microsomes at 1 uM after 15 mins. Type of data set: ADME, microsome. The conditions noted are these: read-out: Drug metabolism. For orientation: Liver microsomes are a subcellular fraction often used to study metabolism.
Data set [6] addresses Voltage-gated inwardly rectifying potassium channel KCNH2 (Homo sapiens, UniProt Q12809). Nature of the data set: Displacement of 3H-dofetilide from human ERG.
A short description of data set [7]: Drug metabolism in human liver microsomes at 1 uM after 15 mins. Type of data set: ADME, microsome. Conditions: read-out: Drug metabolism.
The species entered for another data set is Homo sapiens. Description: Selectivity index, ratio of MEC for human TLR8 to MEC for human TLR7.

Some results are limits rather than exact numbers.

Voltage-gated inwardly rectifying potassium channel KCNH2, sequence (Q12809 whole entry): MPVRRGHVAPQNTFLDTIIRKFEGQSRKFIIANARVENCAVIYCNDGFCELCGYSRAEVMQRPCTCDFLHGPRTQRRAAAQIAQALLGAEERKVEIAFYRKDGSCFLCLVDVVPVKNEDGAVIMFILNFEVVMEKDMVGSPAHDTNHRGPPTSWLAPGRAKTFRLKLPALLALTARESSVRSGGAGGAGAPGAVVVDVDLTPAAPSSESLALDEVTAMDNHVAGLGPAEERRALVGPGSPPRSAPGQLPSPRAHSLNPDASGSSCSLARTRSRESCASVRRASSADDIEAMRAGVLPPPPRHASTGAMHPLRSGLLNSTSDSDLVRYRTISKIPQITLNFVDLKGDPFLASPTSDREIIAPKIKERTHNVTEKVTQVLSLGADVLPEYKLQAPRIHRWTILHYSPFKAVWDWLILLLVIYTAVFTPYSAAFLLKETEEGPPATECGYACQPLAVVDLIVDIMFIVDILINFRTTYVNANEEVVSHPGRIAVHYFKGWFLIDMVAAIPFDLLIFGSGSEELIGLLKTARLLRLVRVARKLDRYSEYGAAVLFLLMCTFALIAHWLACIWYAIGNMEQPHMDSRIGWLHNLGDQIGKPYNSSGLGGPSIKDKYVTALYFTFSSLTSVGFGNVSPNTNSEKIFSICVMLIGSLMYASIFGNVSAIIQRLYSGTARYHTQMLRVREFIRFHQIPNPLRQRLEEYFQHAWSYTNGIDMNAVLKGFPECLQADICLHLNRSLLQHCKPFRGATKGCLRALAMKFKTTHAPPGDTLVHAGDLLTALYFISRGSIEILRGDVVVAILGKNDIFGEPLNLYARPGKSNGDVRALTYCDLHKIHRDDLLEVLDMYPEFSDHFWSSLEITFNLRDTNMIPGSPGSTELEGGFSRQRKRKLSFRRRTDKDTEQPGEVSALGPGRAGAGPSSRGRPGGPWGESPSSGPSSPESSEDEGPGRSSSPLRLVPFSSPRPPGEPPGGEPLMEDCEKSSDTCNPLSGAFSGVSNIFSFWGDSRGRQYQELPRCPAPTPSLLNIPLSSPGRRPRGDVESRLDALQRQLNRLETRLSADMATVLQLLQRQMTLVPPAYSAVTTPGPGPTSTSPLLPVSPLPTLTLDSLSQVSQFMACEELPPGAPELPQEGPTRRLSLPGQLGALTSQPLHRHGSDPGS

On to `CCCCNc1nc(N)nc2c1CN(C(=O)c1cccs1)CC2`, for which the figures for the MEC in data set [1], in data set [2] and in data set [4] were 0.2 µM, 0.4 µM and 0.07 µM, respectively. Further, the CC50 at 6 h in data set [3] was over 24 µM. Further, in data set [5], the metabolised at 0.25 h, 1 µM was determined as 99%.
Consider `CCCCNc1nc(N)nc2c1CN(C(=O)c1csc(C)n1)CC2`, for which the MEC in data set [1] worked out at 2 µM; in data set [2], 1.8 µM; in data set [4], 0.53 µM. In addition, in data set [3], the CC50 at 6 h was over 24 µM. Moreover, the IC50 in data set [6] turned out to be 1.3 µM. Besides, in data set [5], the metabolised at 0.25 h, 1 µM is 88%.
In the case of `CCCC[C@@H](CCO)Nc1nc(N)nc2c1CN(C(=O)c1cccs1)CC2`, the MEC in data set [1] was found to be 0.2 µM; in data set [2], 1.7 µM; in data set [4], 0.2 µM. Moreover, the CC50 at 6 h in data set [3] was over 24 µM. In data set [6], this molecule returned an IC50 of 6.9 µM. In addition, the results for the metabolised at 0.25 h, 1 µM in data set [5] and in data set [7] were 90% and 37%, respectively.
For the molecule `CCCC[C@@H](CCO)Nc1nc(N)nc2c1CN(C(=O)c1csc(C)n1)CC2`, the MEC in data set [1] was 1 µM; in data set [2], 6.6 µM; in data set [4], 0.2 µM. Moreover, the CC50 at 6 h in data set [3] is over 24 µM. The same molecule returned an IC50 in data set [6] of over 50 µM. In addition, the metabolised at 0.25 h, 1 µM came out at 71% in data set [5] and 30% in data set [7].
For `CCCCNc1nc(N)nc2c1CCN(C(=O)c1ccccc1)C2`, the MEC in data set [1] was 3.9 µM; in data set [2], 0.8 µM. Also, in data set [3], the CC50 at 6 h was over 24 µM. For the same molecule, the Selectivity Index in the data set filed under Homo sapiens turned out to be 5.
Consider `CCC[C@@H](CCO)Nc1nc(N)nc2c1CN(C(=O)c1cccs1)CC2`, for which the MEC in data set [1] stood at 0.2 µM; in data set [2] it was 1.1 µM; in data set [4] it was 0.2 µM. The CC50 at 6 h in data set [3] was over 24 µM. The IC50 in data set [6] is 7.6 µM. The metabolised at 0.25 h, 1 µM in data set [5] was determined as 73%; in data set [7], 22%.
As for `CCCCNc1nc(N)nc2c1CN(Cc1ccncc1)CC2`, the MEC in data set [1] stood at 5.2 µM; in data set [2], 0.29 µM; in data set [4], 0.5 µM. Besides, the CC50 at 6 h in data set [3] was over 24 µM.
For the molecule `CCCCNc1nc(N)nc2c1CN(C(=O)c1cnc(C)cn1)CC2`, the MEC in data set [1] came to 11 µM; in data set [2], 6.8 µM; in data set [4], 1.07 µM. Besides, the CC50 at 6 h in data set [3] is over 24 µM.
As to `CCCCNc1nc(N)nc2c1CN(Cc1ccccc1Cl)CC2`, the figures for the MEC in data set [1], in data set [2] and in data set [4] were 1.5 µM, 0.05 µM and 0.15 µM, respectively. Moreover, the CC50 at 6 h in data set [3] is over 24 µM.
The like results for `CCCCNc1nc(N)nc2c1CN(Cc1cccc(OC)c1Cl)CC2` were, in that order, 1 µM, 0.04 µM, 0.05 µM and over 24 µM.
As for `CCCCNc1nc(N)nc2c1CN(Cc1ccc(C(C)(C)C)cc1)CC2`, the MEC is 19 µM in data set [1], 0.66 µM in data set [2] and 2.79 µM in data set [4]. Further, in data set [3], the CC50 at 6 h is over 24 µM.
`CCCCNc1nc(N)nc2c1CN(Cc1cccs1)CC2`: the results for the MEC in data set [1], in data set [2] and in data set [4] were 2.5 µM, 0.14 µM and 0.16 µM, respectively. Besides, in data set [3], the CC50 at 6 h is over 24 µM.
Turning to `CCCCNc1nc(N)nc2c1CN(C(=O)c1cscn1)CC2`, the MEC in data set [1] was 1.2 µM; in data set [2], 0.5 µM; in data set [4], 0.17 µM. Further, in data set [3], the CC50 at 6 h was over 24 µM.
The like results for `CCCCNc1nc(N)nc2c1CN(C(=O)c1ccncc1)CC2` were, in that order, over 25 µM, over 25 µM, 3.56 µM and over 24 µM.
For `CCCCNc1nc(N)nc2c1CN(Cc1ccc(OC(F)(F)F)cc1)CC2`, the MEC in data set [1] amounted to 4.7 µM; in data set [2], 0.24 µM; in data set [4], 0.52 µM. Moreover, the CC50 at 6 h in data set [3] is over 24 µM.
The like results for `CCCCNc1nc(N)nc2c1CN(Cc1c(Cl)cccc1Cl)CC2` were, in that order, 2.4 µM, 0.14 µM, 0.19 µM and over 24 µM.
